The target of the assay is T1, TRPV3 (hTRPV3, transient receptor potential vanilloid 3) (Homo sapiens, UniProt Q8NET8).
T1 construct: hTRPV3 (NM_145068.4)
T1 sequence (Q8NET8 1-790): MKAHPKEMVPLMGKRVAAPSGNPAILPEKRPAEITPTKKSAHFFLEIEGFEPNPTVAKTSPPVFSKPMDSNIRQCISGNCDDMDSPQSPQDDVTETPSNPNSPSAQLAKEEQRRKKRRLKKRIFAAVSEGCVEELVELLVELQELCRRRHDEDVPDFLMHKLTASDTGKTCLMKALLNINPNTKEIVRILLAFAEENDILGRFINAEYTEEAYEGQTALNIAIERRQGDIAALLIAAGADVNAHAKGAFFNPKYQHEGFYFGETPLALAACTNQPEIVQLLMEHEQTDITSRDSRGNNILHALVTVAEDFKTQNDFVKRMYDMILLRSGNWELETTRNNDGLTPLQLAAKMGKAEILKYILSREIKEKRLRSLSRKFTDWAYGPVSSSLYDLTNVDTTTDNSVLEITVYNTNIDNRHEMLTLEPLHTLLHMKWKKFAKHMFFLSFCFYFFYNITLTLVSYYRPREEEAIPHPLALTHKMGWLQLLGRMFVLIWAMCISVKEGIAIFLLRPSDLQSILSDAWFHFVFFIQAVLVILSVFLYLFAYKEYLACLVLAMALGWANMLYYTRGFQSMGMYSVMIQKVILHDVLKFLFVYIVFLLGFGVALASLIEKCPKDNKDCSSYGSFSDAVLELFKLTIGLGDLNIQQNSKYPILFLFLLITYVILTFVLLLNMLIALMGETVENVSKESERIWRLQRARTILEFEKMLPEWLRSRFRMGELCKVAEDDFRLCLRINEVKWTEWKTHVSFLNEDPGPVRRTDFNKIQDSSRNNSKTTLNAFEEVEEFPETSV
Nature of the assay: whole-cell and inside-out single-channel patch clamp in HEK293T cells; site-directed mutagenesis. Format: cell-based.

Each structure is given as a SMILES string.

Compound `C[C@@H]1O[C@@H](O[C@@H]2[C@@H](O)[C@H](OCCc3ccc(O)c(O)c3)O[C@H](CO[C@@H]3O[C@H](CO)[C@@H](O)[C@H](O)[C@H]3O)[C@H]2OC(=O)/C=C/c2ccc(O)c(O)c2)[C@H](O)[C@H](O)[C@H]1O` [echinacoside] gave an IC50 of 21.9 ± 1.28 µM.

The values above are taken from PMC12073194, “Echinacoside Ameliorates UVB-Induced Skin Damage Through Selective Inhibition of the Cutaneous TRPV3 Channel” (Molecules, 2025).
